The record followed here is patent US20040116420A1 (priority 2001, published 2004).

The subject of one data set is Vero cells. The data set is described as follows: Cytotoxicity, Vero cells, Alamar Blue. The following applies: 25 μM, 20 hours. In kind it is cell-based. In outline:
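Overnight-seeded Vero cells were exposed to 25 μM compound in 2% FBS-DMEM for 20 h at 37 °C, 5% CO2. Alamar Blue was then added for about 6 h. The absorbance ratio relative to compound-free control gave the living-cell ratio.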

A further data set concerns HSV-1. The data set is described as follows: Antiviral activity, HSV-1 in Vero cells, plaque method. In kind it is cell-based. The following applies: Human alphaherpesvirus 1, 20 hours, 90% inhibition of plaque formation. A digest of the protocol:
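HSV-1 (50,000 pfu in 2% FBS-DMEM) was added to Vero cells and removed, then the compound was applied in 2% FBS-DMEM for 20 h at 37° C, 5% CO2. After a freeze-thaw, virus yield in the medium was titred by plaque assay. EC90 is the concentration giving 90% plaque reduction versus the compound-free control.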

The target of another data set is T1, HSV-1 protease (Human herpesvirus 1, UniProt P10210).
T1 construct: 6xHis (N); made in house; host or cells: baculovirus expression system
The data set is described as follows: Enzymatic assay for HSV-1 protease (assembly) inhibitor, fluorescence polarization. In kind it is biochemical. The following applies: read-out: HSV-1 Enzyme inhibition IC50. In outline:
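His6-tagged HSV-1 UL26 protease, baculovirus-expressed, preincubated 30 min at RT with compound in 1 M citrate/phosphate buffer pH 7.4 with 20% glycerol and 2 mM TCEP. A biotin-HTYLQA*SERFRIK-DTAF substrate was then cleaved for 60 min at RT, stopped with avidin, and read by fluorescence polarization versus no-inhibitor control.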

The structures appear in SMILES notation. Some results are limits rather than exact numbers.

T1 sequence (P10210 1-247): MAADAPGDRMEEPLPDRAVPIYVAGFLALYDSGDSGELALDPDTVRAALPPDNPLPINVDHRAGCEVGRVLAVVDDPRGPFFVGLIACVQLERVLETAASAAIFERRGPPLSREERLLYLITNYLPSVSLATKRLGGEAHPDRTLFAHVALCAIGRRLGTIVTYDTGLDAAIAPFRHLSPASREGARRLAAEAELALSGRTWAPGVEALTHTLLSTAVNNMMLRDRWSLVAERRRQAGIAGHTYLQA

The term EC90 denotes the point of the concentration-response curve where the effect stands at 90%. As usually defined, the IC50 is the concentration needed to halve the response being measured. `Cc1c(NC(=O)c2ccc(C(C)(C)C)cc2)ccc2nc(NC(C)(C)C(=O)N(C)CCc3ccccn3)oc(=O)c12` [Compound No.168, 4-tert-Butyl-N-(5-methyl-2-{1-methyl-1-[methyl-(2-pyridin-2-yl-ethyl)-carbamoyl]-ethylamino}-4-oxo-4H-benzo[d][1,3]oxazin-6-yl)-benzamide]: in the data set on Vero cells, the “Cell viability (% of control)” value was found to be 16.8%. Moreover, it took 3.6 µM to reach the 90% level in the data set with HSV-1 (EC90). Besides, on HSV-1 protease, the IC50 is 1.3 µM.

Take `Cc1c(NC(=O)c2ccc(-c3ccccc3)cc2)ccc2nc(NC(C)(C)C(=O)N(C)CCc3ccccn3)oc(=O)c12` [Compound No.169, Biphenylyl-4-carboxylic acid (5-methyl-2-{1-methyl-1-[methyl-(2-pyridin-2-yl-ethyl)-carbamoyl]-ethylamino}-4-oxo-4H-benzo[d][1,3]oxazin-6-yl)-amide]: the “Cell viability (% of control)” value in the data set on Vero cells is 7.0%. This molecule also came in with an EC90 in the data set with HSV-1 of 5.7 µM. Moreover, the IC50 on HSV-1 protease is 1 µM.

In the case of `Cc1c(NC(=O)c2cccc(CCl)c2)ccc2nc(NC(C)(C)C(=O)N(C)CCc3ccccn3)oc(=O)c12` [Compound No.170, 3-Chloromethyl-N-(5-methyl-2-{1-methyl-1-[methyl-(2-pyridin-2-yl-ethyl)-carbamoyl]-ethylamino}-4-oxo-4H-benzo [d][1,3]oxazin-6-yl)-benzamide], in the data set with Vero cells, the “Cell viability (% of control)” value stood at 13.6%. For the same molecule, the 90% effect level with HSV-1 (EC90) was put at 7.8 µM. Moreover, on HSV-1 protease, the IC50 turned out to be 1.5 µM.

For the molecule `Cc1c(NC(=O)c2ccc(CCl)cc2)ccc2nc(NC(C)(C)C(=O)N(C)CCc3ccccn3)oc(=O)c12` [Compound No.171, 4-Chloromethyl-N-(5-methyl-2-{1-methyl-1-[methyl-(2-pyridin-2-yl-ethyl)-carbamoyl]-ethylamino}-4-oxo-4H-benzo[d][1,3]oxazin-6-yl)-benzamide], the “Cell viability (% of control)” value in the data set on Vero cells is given as 16.1%. The same molecule returned an EC90 in the data set with HSV-1 of 10.2 µM. Moreover, the IC50 on HSV-1 protease is 2.1 µM.

As to `Cc1c(NC(=O)c2cccc(OC(F)(F)F)c2)ccc2nc(NC(C)(C)C(=O)N(C)CCc3ccccn3)oc(=O)c12` [Compound No.172, N-(5-Methyl-2-{1-methyl-1-[methyl-(2-pyridin-2-yl-ethyl)-carbamoyl]-ethylamino}-4-oxo-4H-benzo[d][1,3]oxazin-6-yl)-3-trifluoromethoxy-benzamide], the “Cell viability (% of control)” value with Vero cells came out at 17.4%. In the data set on HSV-1, this molecule gave an EC90 of 9 µM. Besides, the IC50 at HSV-1 protease worked out at 1.2 µM.

With `Cc1c(NC(=O)c2ccc(OC(F)(F)F)cc2)ccc2nc(NC(C)(C)C(=O)N(C)CCc3ccccn3)oc(=O)c12` [Compound No.173, N-(5-Methyl-2-{1-methyl-1-[methyl-(2-pyridin-2-yl-ethyl)-carbamoyl]-ethylamino}-4-oxo-4H-benzo[d][1,3]oxazin-6-yl)-4-trifluoromethoxy-benzamide], in the data set on Vero cells, the “Cell viability (% of control)” value is reported as 26.1%. In the data set on HSV-1, this molecule displayed an EC90 of 7.1 µM. Further, the IC50 on HSV-1 protease is 1.4 µM.

On to `Cc1oc(C(C)(C)C)cc1C(=O)Nc1ccc2nc(NC(C)(C)C(=O)N(C)CCc3ccccn3)oc(=O)c2c1C` [Compound No.174, 5-tert-Butyl-2-methyl-furan-3-carboxylic acid (5-methyl-2-{1-methyl-1-[methyl-(2-pyridin-2-yl-ethyl)-carbamoyl]-ethylamino}-4-oxo-4H-benzo[d][1,3]oxazin-6-yl)-amide], for which the “Cell viability (% of control)” value with Vero cells is given as 30.1%. Moreover, in the data set with HSV-1, the EC90 was more than 12.5 µM. In addition, the IC50 on HSV-1 protease came to 9.3 µM.

As for `Cc1cc(C(=O)Nc2ccc3nc(NC(C)(C)C(=O)N(C)CCc4ccccn4)oc(=O)c3c2C)c(C(F)(F)F)o1` [Compound No.175, 5-Methyl-2-trifluoromethyl-furan-3-carboxylic acid (5-methyl-2-{1-methyl-1-[methyl-(2-pyridin-2-yl-ethyl)-carbamoyl]-ethylamino}-4-oxo-4H-benzo [d][1,3]oxazin-6-yl)-amide], in the data set with Vero cells, the “Cell viability (% of control)” value turned out to be 99.4%. Further, the EC90 in the data set on HSV-1 is more than 12.5 µM. For the same molecule, the 50% inhibitory concentration (IC50) at HSV-1 protease came out at 2.5 µM.

`Cc1cc(C(=O)Nc2ccc3nc(NC(C)(C)C(=O)N(C)CCc4ccccn4)oc(=O)c3c2C)c(C)o1` [Compound No.176, 2,5-Dimethyl-furan-3-carboxylic acid (5-methyl-2-{1-methyl-1-[methyl-(2-pyridin-2-yl-ethyl)-carbamoyl]-ethylamino}-4-oxo-4H-benzo[d][1,3]oxazin-6-yl)-amide]: in the data set on Vero cells, the “Cell viability (% of control)” value came to 93.3%. In addition, the concentration for an effect of 90% (EC90) in the data set on HSV-1 was more than 12.5 µM. The IC50 on HSV-1 protease is 1.9 µM.

Regarding `Cc1c(NC(=O)c2ccc([N+](=O)[O-])o2)ccc2nc(NC(C)(C)C(=O)N(C)CCc3ccccn3)oc(=O)c12` [Compound No.177, 5-Nitro-furan-2-carboxylic acid (5-methyl-2-{1-methyl-1-[methyl-(2-pyridin-2-yl-ethyl)-carbamoyl]-ethylamino}-4-oxo-4H-benzo[d][1,3]oxazin-6-yl)-amide], the “Cell viability (% of control)” value in the data set on Vero cells came out at 38.0%. In addition, the EC90 with HSV-1 was more than 12.5 µM. For the same molecule, on HSV-1 protease, the IC50 is 6 µM.

Take `Cc1c(NC(=O)c2sc3ccccc3c2Cl)ccc2nc(NC(C)(C)C(=O)N(C)CCc3ccccn3)oc(=O)c12` [Compound No.178, 3-Chloro-benzo[b]thiophene-2-carboxylic acid (5-methyl-2-{1-methyl-1-[methyl-(2-pyridin-2-yl-ethyl)-carbamoyl]-ethylamino}-4-oxo-4H-benzo[d][1,3]oxazin-6-yl)-amide]: the “Cell viability (% of control)” value with Vero cells is 28.1%. It took 5.8 µM to reach the 90% level in the data set with HSV-1 (EC90). Besides, the IC50 at HSV-1 protease turned out to be 0.9 µM.

With `Cc1c(NC(=O)c2sccc2Cl)ccc2nc(NC(C)(C)C(=O)N(C)CCc3ccccn3)oc(=O)c12` [Compound No.179, 3-Chloro-thiophene-2-carboxylic acid (5-methyl-2-{1-methyl-1-[methyl-(2-pyridin-2-yl-ethyl)-carbamoyl]-ethylamino}-4-oxo-4H-benzo[d][1,3]oxazin-6-yl)-amide], in the data set on Vero cells, the “Cell viability (% of control)” value is on record as 61.7%. The same molecule registered an EC90 in the data set with HSV-1 of 6.6 µM. In addition, the IC50 on HSV-1 protease was found to be 1 µM.

Consider `Cc1c(NC(=O)c2scc(S(=O)(=O)C(C)C)c2Cl)ccc2nc(NC(C)(C)C(=O)N(C)CCc3ccccn3)oc(=O)c12` [Compound No.180, 3-Chloro-4-(propane-2-sulfonyl)-thiophene-2-carboxylic acid (5-methyl-2-{1-methyl-1-[methyl-(2-pyridin-2-yl-ethyl)-carbamoyl]-ethylamino}-4-oxo-4H-benzo[d][1,3]oxazin-6-yl)-amide], for which, in the data set with Vero cells, the “Cell viability (% of control)” value was 87.4%. Besides, the EC90 in the data set with HSV-1 was more than 12.5 µM. Besides, on HSV-1 protease, the IC50 amounted to 1.9 µM.

Turning to `Cc1c(NC(=O)c2cc(Cl)sc2Cl)ccc2nc(NC(C)(C)C(=O)N(C)CCc3ccccn3)oc(=O)c12` [Compound No.181, 2,5-Dichloro-thiophene-3-carboxylic acid (5-methyl-2-{1-methyl-1-[methyl-(2-pyridin-2-yl-ethyl)-carbamoyl]-ethylamino}-4-oxo-4H-benzo[d][1,3]oxazin-6-yl)-amide], the “Cell viability (% of control)” value in the data set on Vero cells turned out to be 44.3%. For the same molecule, it took 10.9 µM to reach the 90% level in the data set on HSV-1 (EC90). Besides, the IC50 at HSV-1 protease was determined as 1.8 µM.

Regarding `Cc1c(NC(=O)c2ccccc2OC(F)(F)F)ccc2nc(NC(C)(C)C(=O)N(C)CCc3ccccn3)oc(=O)c12` [Compound No.182, N-(5-Methyl-2-{1-methyl-1-[methyl-(2-pyridin-2-yl-ethyl)-carbamoyl]-ethylamino}-4-oxo-4H-benzo[d][1,3]oxazin-6-yl)-2-trifluoromethoxy-benzamide], the “Cell viability (% of control)” value in the data set on Vero cells is 95.2%. The molecule also came in with an EC90 in the data set with HSV-1 of more than 12.5 µM. Besides, the IC50 on HSV-1 protease came to 4.9 µM.

Consider `Cc1c(NC(=O)c2cccc(C(Cl)Cl)c2)ccc2nc(NC(C)(C)C(=O)N(C)CCc3ccccn3)oc(=O)c12` [Compound No.183, 3-Dichloromethyl-N-(5-methyl-2-{1-methyl-1-[methyl-(2-pyridin-2-yl-ethyl)-carbamoyl]-ethylamino}-4-oxo-4H-benzo[d][1,3]oxazin-6-yl)-benzamide], for which the “Cell viability (% of control)” value in the data set with Vero cells is listed as 101.0%. Moreover, the EC90 in the data set on HSV-1 was more than 12.5 µM. For the same molecule, at HSV-1 protease, the half-inhibitory concentration (IC50) is 1.3 µM.

For `Cc1c(NC(=O)COCc2ccccc2)ccc2nc(NC(C)(C)C(=O)N(C)CCc3ccccn3)oc(=O)c12` [Compound No.184, 2-[6-(2-Benzyloxy-acetylamino)-5-methyl-4-oxo-4H-benzo[d][1,3]oxazin-2-ylamino]-2,N-dimethyl-N-(2-pyridin-2-yl-ethyl)-propionamide], the “Cell viability (% of control)” value with Vero cells turned out to be 93.1%. Moreover, the EC90 in the data set with HSV-1 worked out at 12.1 µM. The IC50 on HSV-1 protease came out at 2.1 µM.

With `CCCCCc1ccc(C(=O)Nc2ccc3nc(NC(C)(C)C(=O)N(C)CCc4ccccn4)oc(=O)c3c2C)cc1` [Compound No.185, N-(5-Methyl-2-{1-methyl-1-[methyl-(2-pyridin-2-yl-ethyl)-carbamoyl]-ethylamino}-4-oxo-4H-benzo[d][1,3]oxazin-6-yl)-4-pentyl-benzamide], the “Cell viability (% of control)” value in the data set with Vero cells amounted to 29.0%. The same molecule yielded an EC90 in the data set with HSV-1 of 3.5 µM. Besides, at HSV-1 protease, the IC50 is 7 µM.

In the case of `Cc1c(NC(=O)c2ccccc2COC(=O)c2ccccc2)ccc2nc(NC(C)(C)C(=O)N(C)CCc3ccccn3)oc(=O)c12` [Compound No.186, Benzoic acid 2-(5-methyl-2-{1-methyl-1-[methyl-(2-pyridin-2-yl-ethyl)-carbamoyl]-ethylamino}-4-oxo-4H-benzo[d][1,3]oxazin-6-ylcarbamoyl)-benzyl ester], the “Cell viability (% of control)” value in the data set on Vero cells stood at 18.1%. In addition, the EC90 with HSV-1 is 3.5 µM. The IC50 on HSV-1 protease is 1 µM.
